Source: patent publication US20170042991A1, “COMPOSITIONS COMPRISING GLUTEN PEPTIDES AND USES THEREOF” (ImmusanT, Inc., priority 2014, published 2017)
Non-standard residues stand in square brackets, D forms with d. pGlu = O=C1CC[C@@H](C(=O)O)N1

Legend:
Format in all cases: cell-based, human
gluten-reactive T cells = test: Cytokine release assays taken together (IFNγ ELISpot, whole blood IFNγ and IP-10 release); settings: for relative activity among individual peptides tested: blood collected after oral gluten challenge, HLA-DQ2.5+ subjects
Experimental: Gluten peptide solutions for addition to whole blood were arranged according to standardized templates in sterile 96-well U-bottom plates (30 μL/well). Plates were sealed with adhesive ELISA plate cover slips before the plastic lid was replaced and being frozen at −80° C. Whole blood assay (WBA) “medium” (1% DMSO in 90% PBS and 9% normal saline), mitogen (PHA-L, Sigma-Aldrich #L2769; St Louis Mo.) 100 μg/ml in WBA medium, and CEF diluted to 10 μg/ml in PBS with a final concentration of 1% DMSO were frozen separately in sterile cryovials. 96-well plates and cryovials with frozen incubation solutions were shipped on dry ice to the clinical site where blood was collected and incubations performed. Solutions were thawed at room temperature for 10 min just before being added to whole blood. 96-well plates were thawed while being centrifuged at 300 g to avoid surface condensation. A multi-channel pipette was used to efficiently transfer 25 μL of peptide solutions from the original 96-well plate to corresponding wells in a fresh sterile 96-well U-bottom plate. Once incubation solutions had been added, 225 μL of whole blood was added to each well and the plate transferred to incubate for 24 h at 37° C. 5% CO2. […] Individual peptides were incubated at a final assay concentration of 5 μM. Final concentrations of individual peptides assessed in P3 was 0.05-50 μg/mL, and in P14 and P13 pools 0.025-25 μM. The P71 pool was tested at between 0.005-10 μg/mL, the highest tested concentration being the maximal possible not exceeding 0.1% DMSO. Peptide pools, mitogen, and medium only were assessed in triplicate wells, and on Day-6 individual peptides were assessed in duplicate wells. Incubations were terminated after 24 h, and 96-well plates centrifuged at 300 g for 10 min. A total of approximately 90 to 120 μL of plasma was removed from each well taking care to avoid red cell contamination, and transferred into corresponding wells of two further 96-well plates (one with 30 μL/well and the residual in the second plate). Plasmas were frozen at −80° C. and later shipped on dry ice to the central lab where IP-10 and IFNγ multiplex bead assays were performed according to manufacturer's instructions using 25 μL plasma per well (Milliplex® MAP Human Cytokine/Chemokine Magnetic Bead Panel #HCYTOMAG-60k-02; EMD Millipore Corp., Billerica, Mass. 01821) and analysed with the Luminex® MAGPIX® System xPONENT® software (Luminex Corporation, Austin Tex. 78727). Plasma cytokine levels for each assay condition were expressed as the mean analyte concentration of each of the three replicate incubations. Laboratory staff were unaware of the arrangement of peptide solutions incubated with during assay setup and plate counting. […]

PBMC = test: IFN-gamma ELISpot of PBMC, Day-6 after gluten challenge (Example 1); settings: DQ2.5+ CD
whole blood [1] = test: 96-well plate whole blood multiplex cytokine release, IP-10 (MAGPIX bead assay, Example 2); settings: for Percent of maximal response, IP-10: after oral gluten challenge; for IP-10 WB MAGPIX % max Mean: individual peptides 5 μM, Day-6, n = 10, Peptide 2 = CSBio batch
whole blood [2] = test: 96-well plate whole blood multiplex cytokine release, IFNγ (MAGPIX bead assay, Example 2); settings: for Percent of maximal response, IFNg: after oral gluten challenge; for IFNγ WB MAGPIX % max Mean: individual peptides 5 μM, Day-6, n = 8, Peptide 2 = CSBio batch

Substance | relative activity among individual peptides tested (gluten-reactive T cells) | Peptide-specific IFN-gamma ELISpot response (PBMC; Subject 1, 10 ug/ml) | Peptide-specific IFN-gamma ELISpot response (PBMC; Subject 2, 10 ug/ml) | Peptide-specific IFN-gamma ELISpot response (PBMC; Subject 3, 10 ug/ml) | Peptide-specific IFN-gamma ELISpot response (PBMC; Subject 4, 10 ug/ml) | Peptide-specific IFN-gamma ELISpot response (PBMC; Subject 5, 10 ug/ml) | Peptide-specific IFN-gamma ELISpot response (PBMC; Subject 6, 10 ug/ml) | Peptide-specific IFN-gamma ELISpot response (PBMC; Subject 7, 10 ug/ml) | Peptide-specific IFN-gamma ELISpot response (PBMC; Subject 8, 10 ug/ml) | Peptide-specific IFN-gamma ELISpot response (PBMC; Subject 9, 10 ug/ml) | Peptide-specific IFN-gamma ELISpot response (PBMC; Subject 10, 10 ug/ml) | Percent of maximal response, IP-10 (whole blood [1]; Subject 1, Max. 2331 pg/mL) | Percent of maximal response, IP-10 (whole blood [1]; Subject 2, Max. 3646 pg/mL) | Percent of maximal response, IP-10 (whole blood [1]; Subject 3, Max. 9492 pg/mL) | Percent of maximal response, IP-10 (whole blood [1]; Subject 4, Max. 9463 pg/mL) | Percent of maximal response, IP-10 (whole blood [1]; Subject 5, Max. 9336 pg/mL) | Percent of maximal response, IP-10 (whole blood [1]; Subject 6, Max. 5863 pg/mL) | Percent of maximal response, IP-10 (whole blood [1]; Subject 7, Max. 2330 pg/mL) | Percent of maximal response, IP-10 (whole blood [1]; Subject 8, Max. 4019 pg/mL) | Percent of maximal response, IP-10 (whole blood [1]; Subject 9, Max. 8349 pg/mL) | also measured
(pE)LQPFPQPELPYPQPQ-amide ([pGlu]LQPFPQPELPYPQPQ-NH2; SMILES CC(C)C[C@H](NC(=O)[C@@H]1CCC(=O)N1)C(=O)N[C@@H](CCC(N)=O)C(=O)N1CCC[C@H]1C(=O)N[C@@H](Cc1ccccc1)C(=O)N1CCC[C@H]1C(=O)N[C@@H](CCC(N)=O)C(=O)N1CCC[C@H]1C(=O)N[C@@H](CCC(=O)O)C(=O)N[C@@H](CC(C)C)C(=O)N1CCC[C@H]1C(=O)N[C@@H](Cc1ccc(O)cc1)C(=O)N1CCC[C@H]1C(=O)N[C@@H](CCC(N)=O)C(=O)N1CCC[C@H]1C(=O)N[C@@H](CCC(N)=O)C(N)=O) [Peptide 1] | most active of this group of related peptides | 2 spot forming units per 0.8 million PBMC | 4 spot forming units per 0.8 million PBMC | 2 spot forming units per 0.8 million PBMC | 8 spot forming units per 0.8 million PBMC | 0 spot forming units per 0.8 million PBMC | 4 spot forming units per 0.8 million PBMC | 1 spot forming units per 0.8 million PBMC | 0 spot forming units per 0.8 million PBMC | 0 spot forming units per 0.8 million PBMC | 1 spot forming units per 0.8 million PBMC | 100 % of max | 100 % of max | ≥ 100 % of max | 96 % of max | 14 % of max | 23 % of max | 39 % of max | 3 % of max | 75 % of max | activity as a fraction of that of Peptide 14 (gluten-reactive T cells; three cytokine release assays): no more than two-thirds; Percent of maximal response, IP-10 (whole blood [1]; Subject 10, Max. 8922 pg/mL): 34 % of max; IP-10 WB MAGPIX % max Mean (whole blood [1]): 58 % max; Percent of maximal response, IFNg (whole blood [2]; Subject 2, Max. 116 pg/mL): 100 % of max; Percent of maximal response, IFNg (whole blood [2]; Subject 3, Max. 799 pg/mL): 14 % of max; Percent of maximal response, IFNg (whole blood [2]; Subject 4, Max. 136 pg/mL): 26 % of max; Percent of maximal response, IFNg (whole blood [2]; Subject 6, Max. 72 pg/mL): 25 % of max; Percent of maximal response, IFNg (whole blood [2]; Subject 7, Max. 17 pg/mL): 43 % of max; Percent of maximal response, IFNg (whole blood [2]; Subject 8, Max. 47 pg/mL): 6 % of max; Percent of maximal response, IFNg (whole blood [2]; Subject 9, Max. 67 pg/mL): 43 % of max; Percent of maximal response, IFNg (whole blood [2]; Subject 10, Max. 229 pg/mL): 7 % of max; IFNγ WB MAGPIX % max Mean (whole blood [2]): 33 % max
(pE)PEQPIPEQPQPYPQQ-amide ([pGlu]PEQPIPEQPQPYPQQ-NH2; SMILES CC[C@H](C)[C@H](NC(=O)[C@@H]1CCCN1C(=O)[C@H](CCC(N)=O)NC(=O)[C@H](CCC(=O)O)NC(=O)[C@@H]1CCCN1C(=O)[C@@H]1CCC(=O)N1)C(=O)N1CCC[C@H]1C(=O)N[C@@H](CCC(=O)O)C(=O)N[C@@H](CCC(N)=O)C(=O)N1CCC[C@H]1C(=O)N[C@@H](CCC(N)=O)C(=O)N1CCC[C@H]1C(=O)N[C@@H](Cc1ccc(O)cc1)C(=O)N1CCC[C@H]1C(=O)N[C@@H](CCC(N)=O)C(=O)N[C@@H](CCC(N)=O)C(N)=O) [Peptide 3] | consistently the second most active peptide after Peptide 14 | 0 spot forming units per 0.8 million PBMC | 1 spot forming units per 0.8 million PBMC | 9 spot forming units per 0.8 million PBMC | 30 spot forming units per 0.8 million PBMC | 0 spot forming units per 0.8 million PBMC | 11 spot forming units per 0.8 million PBMC | 1 spot forming units per 0.8 million PBMC | 9 spot forming units per 0.8 million PBMC | 3 spot forming units per 0.8 million PBMC | 1 spot forming units per 0.8 million PBMC | 51 % of max | 14 % of max | ≥ 100 % of max | ≥ 100 % of max | 53 % of max | 43 % of max | 5 % of max | 100 % of max | 85 % of max | Percent of maximal response, IP-10 (whole blood [1]; Subject 10, Max. 8922 pg/mL): ≥ 100 % of max; IP-10 WB MAGPIX % max Mean (whole blood [1]): 65 % max; whole blood IP-10 release compared with that stimulated by Peptide 14 (whole blood [1]; whole blood incubations): one-quarter less; Percent of maximal response, IFNg (whole blood [2]; Subject 2, Max. 116 pg/mL): 35 % of max; Percent of maximal response, IFNg (whole blood [2]; Subject 3, Max. 799 pg/mL): 92 % of max; Percent of maximal response, IFNg (whole blood [2]; Subject 4, Max. 136 pg/mL): 66 % of max; Percent of maximal response, IFNg (whole blood [2]; Subject 6, Max. 72 pg/mL): 63 % of max; Percent of maximal response, IFNg (whole blood [2]; Subject 7, Max. 17 pg/mL): 6 % of max; Percent of maximal response, IFNg (whole blood [2]; Subject 8, Max. 47 pg/mL): 89 % of max; Percent of maximal response, IFNg (whole blood [2]; Subject 9, Max. 67 pg/mL): 60 % of max; Percent of maximal response, IFNg (whole blood [2]; Subject 10, Max. 229 pg/mL): 81 % of max; IFNγ WB MAGPIX % max Mean (whole blood [2]): 62 % max; whole blood IFNγ release compared with that stimulated by Peptide 14 (whole blood [2]; whole blood incubations): one-third less
